# According to PubChem BioAssay AID1996:
# Details: buffer; pH 7.4; 200.0 µM
row,Structure (SMILES),solubility kinetic [µg/mL]
1,O=C(NCCCSc1ccccc1)c1ccc(=O)[nH]c1,> 43.3
2,CN(C)c1ccc(P(=O)(OC2CCCCC2)C(O)c2ccccn2)cc1 (centres undefined),> 56.2
3,CC(=O)c1c(C)[nH]c(C(=O)COC(=O)c2cc(C)oc2C)c1C,13.1
4,COc1ccc(CNC(=O)CNC(=O)c2ccc(Br)o2)cc1OC,53.1
5,O=C1Nc2ccccc2C1Cc1ccccn1 (centres undefined),> 33.6
6,Cc1ccc(NC(=O)c2cccc3ccccc23)cc1,< 0.6
7,Cc1ccc(S(=O)(=O)CCC(=O)OCc2nnc(-c3ccccc3)o2)cc1,> 58
8,CCOc1ccc(OCCCC(=O)NCCOc2ccccc2OC)cc1,> 56
9,CC(CC(=O)NCCc1ccc(F)cc1)c1ccccc1 (centres undefined),39.3
10,C#CCN1C(=O)C2(OCCO2)c2ccccc21,> 34.4
11,Cc1ccc(C2Nc3ccccc3C(=O)N2CCN2CCNC2=O)cc1 (centres undefined),> 52.6
12,CCNC(=O)c1ccccc1-c1nc(-c2ccccc2OC)no1,42.3
13,CC(C)N1CC(COc2ccccc2Cl)OC1=O (centres undefined),> 40.5
14,CN1CCc2c(OCc3ccc(F)cc3)cccc2C1=O,36.8
15,COc1ccccc1NC(=O)COC(=O)c1cc(C)n(C2CC2)c1C,3.4
16,COc1cccc2c(O)c(-c3ccccc3)c(=O)[nH]c12,> 40.1
17,O=C(NCc1ccc(F)cc1)c1cnc(Cl)c(Cl)c1,6.9
18,CCOc1ccc(CCNC(=O)CCC(=O)c2cccs2)cc1OCC,> 56.3
19,CC(C)n1c(SCC(=O)Nc2nncs2)nnc1C1CC1,> 48.7
20,O=C(COC(=O)CCC(=O)c1ccc(F)cc1)NCc1ccc(Cl)cc1,10.6
21,Nc1ccc(-c2cc3ccccc3oc2=O)cc1,17.9
22,CC(C)C(=O)Nc1nnc(SCC(=O)NCC2CCCO2)s1 (centres undefined),> 51.7
23,CCOc1ccccc1Nc1nc(-c2cccnc2)cs1,10.6
24,COc1cccc(OC)c1CN(C)C(=O)c1cnccc1C(F)(F)F,> 53.1
25,Cc1nc(-c2noc(-c3ccccc3Cl)n2)c(C(F)(F)F)o1,0.6
26,O=C(NCc1ccco1)C1CC(c2ccc(Cl)c(Cl)c2)=NO1 (centres undefined),1.4
27,Cc1ccc(S(=O)(=O)NCCSc2ncccn2)cc1,> 46.4

row,Structure (SMILES),solubility kinetic [µg/mL]
1,Nc1ccccc1C(=O)NCC1(c2ccccc2)CCCC1,> 44.2
2,O=C(NCCc1ccccc1)c1cnc(Cl)c(Cl)c1,11.6
3,COc1ccc(NC(=O)c2ccco2)cc1NC(=O)c1cccc(F)c1,< 0.4
4,COc1ccc(NC(=S)N(C)CC2COc3ccccc3O2)cc1 (centres undefined),2.6
5,CC(C)(C)c1ccccc1NC(=S)NC1CCCCC1,2.5
6,O=C(O)CCCCCCCCCC[n+]1ccccc1.[Br-],47.9
7,CC(N)C(=O)OC(C)(C)Cc1ccc(Cl)cc1.Cl (centres undefined),> 43.8
8,CN(C)c1ccc(/C=C/c2nc3ccccc3c(=O)[nH]2)cc1,0.6
9,O=C1CSC(=Nc2ccc(Cl)cc2)N1,33.7
10,O=C(Nc1ccccc1)Nc1ccccc1C(=O)NCC1CC1,5.1
11,O=C(Nc1ncccc1O)c1c(O)c2ccccc2[nH]c1=O,11.1
12,O=C(Nc1ccccc1)c1cc2ccc3ccccc3c2s1,< 0.6
13,CC(C)c1ccc(C(CC(=O)O)N2Cc3ccccc3C2=O)cc1 (centres undefined),> 48.5
14,CC(C)C(=O)Nc1csc(C(F)(F)F)c1-c1ccccc1,12.8
15,COc1cc(C2Nc3cccc4cccc(c34)N2)ccc1O,35.5
16,CCN(CC(=O)Nc1ccc(OC)cc1)C(=O)c1ccc2ccccc2c1,43.9
17,COc1ccc(OCCCC(=O)Nc2nccs2)cc1,> 43.9
18,Fc1ccccc1-c1nc(-c2ccncc2)no1,6
19,Clc1cccc(Sc2ccc(-c3ccccn3)s2)c1,< 0.7
20,COc1ccc(NC(=O)CN2CCCCC2)cc1S(=O)(=O)N1CCCCC1.O=C(O)C(=O)O,> 72.8
21,Cn1c(=O)n(C)c2cc([N+](=O)[O-])c(N3CCNCC3)cc21,> 43.7
22,CCN(CC)C(=O)C12CC3CC(CC(Br)(C3)C1)C2,32.7
23,CCOC(=O)COn1c(=O)c(-c2ccccc2)[n+]([O-])c2ccccc21,35.2
24,CCN(CC)CCC#CC1(O)c2ccccc2-c2ccccc21,> 45.8
25,Cc1ccc(NC(=O)c2cc(-c3ccccc3)n(CCCN3CCOCC3)c2C)cc1,19.9
26,CCN1C(=O)c2cccc3c(N)ccc(c23)C1=O,7.5

# Continued, values first:
row,solubility kinetic [µg/mL],Structure (SMILES)
1,< 0.4,COc1cc(C)c(S(=O)(=O)NOCc2ccc([N+](=O)[O-])cc2)c(C)c1C
2,15,COc1ccc(O)c(/C=N/c2nc3ccccc3n2C)c1
3,> 52.6,O=C(O)/C=C/C(=O)N1CCN(C(c2ccccc2)c2ccccc2)CC1
4,> 35.4,COc1ccc(CC2SC(N)=NC2=O)cc1 (centres undefined)
5,2.2,Cc1ccc(C)c(NC(=O)CSc2cccc3cccnc23)c1
6,> 39,O=S(=O)(NC1=NCCC1)c1ccc(F)cc1F
7,> 51.7,CC(C)C1Oc2ccccc2N(CC(=O)N(C)C2CCCCC2)C1=O (centres undefined)
8,0.4,O=C(OCc1ccc([N+](=O)[O-])cc1)c1cnc(Cl)c(Cl)c1
9,33,S=C(NC1CC1)N1CCCc2ccccc21
10,27.8,O=C(Nc1ncccn1)c1ccc([N+](=O)[O-])cc1Cl
11,> 43.7,O=C(CN1C(=O)NC2(CCCC2)C1=O)NCc1ccco1
12,< 0.3,CC(=O)c1ccc(NC(=O)c2cc(-c3cccs3)on2)cc1
13,13.8,COc1ccc(S(=O)(=O)N2CCOCC2)cc1NC(=O)CSc1ncccn1
14,47,Cc1ccc2cc(NC(=O)CC(CC(=O)O)c3ccccc3)ccc2n1 (centres undefined)
15,> 38.7,NC(=O)Cn1c(-c2nonc2N)nc2ccccc21
16,> 42.6,O=C(NCc1ccccc1Br)C1CCCO1 (centres undefined)
17,30.6,CCOC(=O)CN1C(=O)C(=O)N(Cc2c(Cl)cccc2Cl)C1=O
18,31.7,CC(=O)N1CCN(c2nc3ccc([N+](=O)[O-])cc3s2)CC1
19,> 33.9,O=C(c1[nH]ncc1[N+](=O)[O-])N1CCOCC1
20,> 44.7,O=C(NCc1ccccc1)C(=O)Nc1cccc(C(=O)O)c1
21,71.1,CN(C(=O)CSc1nc2ccccc2c(=O)n1-c1ccccc1Cl)C1CCS(=O)(=O)C1 (centres undefined)
22,> 39.5,O=C(COC(=O)c1ccc(O)cc1)NC1CCCC1

row,solubility kinetic [µg/mL],Structure (SMILES)
1,33.4,CC(=O)Nc1ccc2nc(-c3cccn3C)[nH]c2c1
2,> 45.7,O=C(NCCc1ccccc1)c1ccc(Cl)cc1[N+](=O)[O-]
3,> 50.3,Cc1cc(NC(=O)COC(=O)C2CCC(=O)N2)c([N+](=O)[O-])cc1C (centres undefined)
4,10.4,O=C(COC(=O)c1ccc2ncsc2c1)NCc1ccccc1Cl
5,> 45.8,O=C(O)CC1(CC(=O)Nc2cccc(C(=O)O)c2)CCCC1
6,> 36.3,Cc1c(NCc2cccnc2)cccc1C(=O)O
7,48.9,CCCCc1c(O)nc(SCC(=O)N2CCCCCC2)[nH]c1=O
8,> 32.3,O=c1[nH]c2ccccc2n1C1=CCNCC1
9,> 39.8,Oc1ccc(/C=N/NC(=S)N2CCOCC2)cc1
10,> 34.7,O=C(c1cc2ccccc2o1)N1CCOCC1
11,5.5,COC(=O)CNC(c1ccccc1)c1cc(Br)ccc1N (centres undefined)
12,> 57.1,CS(=O)(=O)c1ccc(C(=O)NCC2(N3CCOCC3)CCCCC2)cc1
13,2.1,COc1ccc(C=C(C#N)C#N)c(CSc2ccccn2)c1
14,> 63.7,N#CCC(=O)Nc1ccc(C(=O)OCC(=O)N2CCN(C(=O)c3ccco3)CC2)cc1
15,< 0.7,COC(=O)C1=C(Nc2cc(Cl)cc(Cl)c2)CSC1
16,> 54.7,Cc1cccc(Nc2nnc(SCC(=O)NCC3CCCO3)s2)c1 (centres undefined)
17,> 42.7,O=C(NCCN1CCCCC1)c1ccc(F)cc1Cl
18,< 0.2,Cc1ccc(Nc2c([N+](=O)[O-])ccc3nonc23)c(C)c1
19,> 51.8,COC(CNC(=O)c1ccc2c(c1)ncn2C1CCCCCC1)OC
20,> 64.3,O=C(CSc1ncccn1)Nc1ccc(Cl)c(S(=O)(=O)N2CCOCC2)c1
21,> 52.5,CCOC(=O)N1CCN(Cc2cc(Cl)c3cccnc3c2O)CC1
22,4.8,Cc1noc(C)c1C(=O)Nc1nc(-c2ccc(F)c(F)c2)cs1

row,solubility kinetic [µg/mL],Structure (SMILES)
1,52,O=C(c1cccc([N+](=O)[O-])c1)N1CCN(C/C=C/c2ccccc2)CC1
2,1.4,CC(=O)c1cccc(NC(=O)COc2ccc3oc(=O)cc(C)c3c2)c1
3,> 49.7,CCc1cc(C(=O)O)c(NC(=O)/C=C/c2ccc(OC)cc2)s1
4,< 0.3,O=C(c1cc2cc(Cl)ccc2[nH]1)N1CCN(c2ccccc2F)CC1
5,> 46.3,Cc1ccc(C(=O)CCC(=O)N2CCC(C(N)=O)CC2)s1
6,2.3,O=C(/C=C/c1ccc(F)cc1)c1ccc(N2CCOCC2)cc1
7,27.2,O=C(CCNS(=O)(=O)c1ccc(F)c(Cl)c1)NCc1ccccc1F
8,> 46.9,COc1ccccc1NC(=O)C1CCCN(c2cnccn2)C1 (centres undefined)
9,> 50.3,CC(=O)Nc1ccc(C(=O)COC(=O)Cc2ccsc2)c(F)c1
10,25,O=C(O)CN1C(=O)CC(c2ccccc2)CC1=O
11,39.3,O=C(NCc1ccc(F)cc1)N1CCc2ccccc2C1
12,10.1,COc1ccc(N(Cc2cc3ccc(C)cc3[nH]c2=O)C(=O)C2CCCO2)cc1 (centres undefined)
13,> 54.2,Cn1c(SCC(=O)Nc2ccccc2[N+](=O)[O-])nnc1C(F)(F)F
14,> 46.4,Cc1c(C(=O)O)oc2ccc(S(=O)(=O)N3CCCC3)cc12
15,> 39.1,Cc1cccc(NC(=O)CN(C)C(=O)C2CC2)c1C
16,> 76.7,COCCN(C(=O)c1cc(-c2ccco2)nc2ccccc12)c1c(N)n(Cc2ccccc2)c(=O)[nH]c1=O
17,> 44.8,O=C(COc1ccccc1)N1CCN(c2ncccn2)CC1
18,> 50,O=C(CSc1ccc(-c2ccc(F)cc2)nn1)N1CCOCC1
19,> 51.8,COc1ccccc1NC(=O)COC(=O)C1C2CC3OC(=O)C1C3C2 (centres undefined)
20,1.5,O=C(Cc1ccc(Br)cc1)NC1CCCc2ccccc21 (centres undefined)
21,37.4,CC(C)(C)c1ccc(C2=NC(=O)C(CC(=O)O)S2)cc1 (centres undefined)
22,> 27.5,COc1ccc(C(=O)O)c(OC)n1
